Results from patent US9187397B2 (STC.UNM, priority 2004, dated 2015).
Read-outs that look alike come from different tables or passages of the source.

Legend:
[1] = target: glutathione S-transferase P1-1 (Homo sapiens (Human), UniProt P09211); assay: GSTP1-1 enzyme inhibition assay (CDNB/GSH, 340 nm); type: biochemical; settings: 1 mM CDNB, 1 mM GSH, pH 6.5; compared with curcumin
Procedure: Kinetic analysis assays were conducted. […] GSTP1-1 activity was measured at pH 6.5 in 1 ml volumes of 20 mM potassium phosphate buffer containing 100 mM NaCl, 1 mM CDNB and 1 mM GSH. […] (Perkin/Elmer Lambda 2S spectrophotometer). These activities were plotted as percent of control (GSTP1-1 activity without inhibitors). Kinetic analysis (dissociation constants) of inhibitors was determined by linear regression analysis of the Dixon, plots. […] Ki's were calculated utilizing SigmaPlot's Enzyme Kinetics Module™ (Chicago, Ill., USA). […]
These activities were plotted as percent of control (GSTP1-1 activity without inhibitors).

[2] = target: Aβ oligomers and fibrils (Homo sapiens (Human), UniProt P05067); settings: cited from earlier work
Chain of Aβ oligomers and fibrils (P05067 672-711): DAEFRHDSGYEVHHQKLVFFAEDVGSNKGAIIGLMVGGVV

[3] = Reactivity toward L-cysteine as nucleophile (absorbance 425 nm); type: physicochemical; settings: 1 mM L-cysteine in sodium phosphate buffer, pH 7; read-out: t1/2 of absorbance quenching by L-cysteine
Procedure: Natural log values were determined based on 1st order kinetics.
Weber et al., (2005) Bioorg Med Chem 13, 3811-3820. These groups potentially serve as Michael acceptors which are chemically reactive and can form undesirable covalent modifications with biomolecules. Michael acceptors are generally thought to be poor drug compounds because of their high reactivity toward nucleophilies.
These groups potentially serve as Michael acceptors which are a chemically reactive species that can form undesirable covalent modifications with binding targets. […] Michael acceptors are generally thought to be poor drug compounds because of their high reactivity toward nucleophiles. […] In addition, at or below neutral pH, primary amino groups are predominantly in their protonated form and therefore weak nucleophiles that are unlikely to react to any significant extent with curcumin.

[4] = test system: AP-1; assay: AP-1 luciferase reporter cellular assay (293/AP1-luc, PMA-stimulated); type: cell-based, human; settings: for activity in the AP-1 cellular assay (screen): 15 μM, compared with curcumin; for IC50: Homo sapiens, inhibition of PMA-induced AP-1 activation, 293/AP1-luc cells, Table 10, read-out: AP-1 IC50
Procedure: This cell line is obtained by co-transfection of pAP1-luc and pTK-hyg containing plasmids followed by the addition of hygromycin (200 μg/ml) to maintain cell selection.
After 24 hr, the cells had reached approximately 60% confluency. […] Plate wells were gently washed with PBS, pH 7.4, and lysed with passive lysis buffer (1×, 100 μl, Promega). The subsequent chemiluminescent lysates were analyzed with the Luciferase Assay System (Promega) utilizing a TD-20/20 luminometer. The relative light units (photons) were determined by the addition of firefly luciferase substrate (75 μl) to cell lysate (10 μl). The light units were then normalized to the amount of protein in the well (mg/ml) with BCA™ Protein Assay Kit (Pierce) and standardized to percent of control (PMA).
(§1) This cell line is stably transfected with a luciferase reporter controlled by an AP-1 dependent promoter. The cell is stimulated with phorbol ester which activates AP-1. AP-1 then binds to one of three promoter regions on the cells DNA leading to the production of a luciferase enzyme. Luciferin is added to the cell lysates and the luciferase enzyme catalyzes a cleavage of luciferin leading to the emission of light.

[5] = Total Radical-trapping Anti-oxidant Parameter assay (TRAP assay); set-up: key to TRAP: active as an antioxidant (+); settings: antioxidant activity
Procedure: This assay is also known as the Total radical-trapping anti-oxidant parameter assay (TRAP assay). For the TRAP assay (Re et al., Free Rad. Biol. […] The turquoise colored reaction was allowed to stabilize for 5 min and the absorbance monitored on a Perkin Elmer UV/Vis Lambda 2S. […] The following FIGS. 2A-2C) show the analogs active in the TRAP assay.

[6] = Ferric Reducing/Anti-oxidant Power assay (FRAP assay); set-up: key to FRAP: active as an antioxidant (+); settings: antioxidant activity
Procedure: Anti-oxidant activity was also measured in the Ferric reducing/anti-oxidant power assay (FRAP assay) in which the analogs are reacted with a ferric tripyridyltriazine complex. For the FRAP assay (Benzie et al., Meth. Enzymol. 1999, 299, 15-27), the ferric complex was prepared at room temperature by reaction of ferric chloride (16.7 mM) and 2,4,6-tripyridyl-s-triazine (8.33 mM) in acetate buffer (0.25 M) to pH 3.6. The FRAP reagent was used immediately after preparation. […] The reaction was mixed by vortexing, allowed to stabilize for 5 min and the absorbance recorded on a Perkin Elmer UV/Vis Lambda 2S. […] The synthetic analog of α-tocopherol (vitamin E), Trolox, was used as a reference standard (10 μM in ethanol).
The second assay used, the FRAP assay, determines the analogs abilities to reduce a Fe(III) tripyridyltriazine complex to a Fe(II) tripyridyltriazine complex. The following FIGS. 3A-3C) show analogs active in the FRAP assay.

[7] = test system: NF-κB; assay: NF-κB luciferase reporter cellular assay (293T/NF-κB-luc, TNFα-stimulated); type: cell-based, human; settings: for inhibition of the activation of NF-κB by TNFα (screen): 10 μM, compared with curcumin; for IC50: Homo sapiens, HEK-293T, inhibition of TNFα-induced NF-κB activation
Procedure: The cell line is derived from human 293T embryonic kidney cells expressing the large T antigen containing a chromosomal integration of a luciferase reporter construct regulated by 6 copies of the NF-κB response element (Panomics, Inc.). This stable clonal cell line is obtained by co-transfection of pNF-κB-luc and pTK-hyg containing plasmids followed by the addition of hygromycin (200 μg/ml) to maintain cell selection.
The cell line was grown in a humidified atmosphere at 37° C. in 5% CO2/95% air and maintained in Dulbecco's Modified Eagle's Medium (DMEM-high glucose containing 4 mM glutamine) containing fetal bovine serum (FBS, 10%), sodium pyruvate (1 mM), penicillin (100 units/ml), streptomycin (100 μg/ml) and hygromycin (100 μg/m) to maintain cell selection (Gibco/Invitrogen).
The 293T/NF-κB-luc cells were re-plated 24 hr prior to treatment, into 24-well cell culture plates in media without hygromycin, to prevent it from interfering with the assay. The cells were then allowed to grow and attach, to the wells, for 24 hr in a humidified atmosphere at 37° C. in 5% CO2/95% air. […] The cells then were placed again in a humidified atmosphere at 37° C. in 5% CO2/95% air for 7 hr. Plate wells were gently washed with PBS, pH 7.4, and lysed with passive lysis buffer (1×, 100 μl, Promega). The subsequent chemiluminescent lysates were analyzed with the Luciferase Assay System (Promega) utilizing a TD-20/20 luminometer. The relative light units (photons) were determined by the addition of firefly luciferase substrate (75 μl) to cell lysate (10 μl). The light units were then normalized to the amount of protein in the well (mg/ml) with BCA™ Protein Assay Kit (Pierce) and standardized to percent of control (TNFα).
as §1, with “This assay utilized a commercially available cell line (Panomics 293T-luc cellular assay) developed for screening inhibitors of NF-κB. This” for “This”, “NF-κB” for “AP-1”, “tumor necrosis factor alpha (TNFα)” for “phorbol ester”, “NF-κB. NF-κB” for “AP-1. AP-1”, “six” for “three”, “cell's” for “cells”
This cell line was developed by Panomics for screening potential inhibitors of NF-κB. Cells are stimulated with TNF-α to express luciferase, whose activity is monitored in a chemiluminometer.
An NF-κB reporter stable cell line from human 293T embryonic kidney cells (293T/NFκB-luc) (Panomics) was grown in a humidified atmosphere at 37° C. in 5% CO2/95% air. The cells were maintained in Dulbecco's Modified Eagle's Medium (DMEM—high glucose containing 4 mM glutamine) supplemented with 10% fetal bovine serum (FBS), 1 mM sodium pyruvate, 100 units/ml penicillin, 100 μg/m streptomycin and 100 μg/ml hygromycin (Gibco/Invitrogen, Carlsbad, Calif.)) to maintain cell selection. One day prior to treatment, the 293T/NFκB-luc cells were plated into 24-well cell culture plates (Costar) at approximately 70% confluency in the above media without hygromycin. The following day cells were fed fresh media 1 hour prior to treatment. […] The cells were placed again in a humidified atmosphere at 37° C. in 5% CO2/95% air for 7 hours. Plate wells were gently washed with phosphate buffered saline, pH 7.4, and lysed with 1× passive lysis buffer (Promega). The subsequent lysates were analyzed with the Luciferase Assay System (Promega) utilizing a TD-20/20 luminometer (Turner Designs). The firefly luciferase relative light units were normalized to protein (mg/ml) with BCATM Protein Assay Kit (Pierce) and standardized to TNF-α control.

[8] = 293T/NF-κB-luc cells, Table 5, read-out: IC50

Chain of glutathione S-transferase P1-1 (P09211 2-210): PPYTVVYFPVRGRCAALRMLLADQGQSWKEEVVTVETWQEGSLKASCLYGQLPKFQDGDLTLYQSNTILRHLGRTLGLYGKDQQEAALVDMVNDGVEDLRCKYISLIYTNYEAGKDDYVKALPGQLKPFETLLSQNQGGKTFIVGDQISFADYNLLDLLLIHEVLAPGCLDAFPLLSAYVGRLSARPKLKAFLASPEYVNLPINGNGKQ

O=C(/C=C(O)/C=C/c1ccccc1)/C=C/c1ccccc1 [3b]
activity in the GSTP1-1 screening assay [1]: more active than curcumin

O=C(/C=C/c1ccccc1Cl)/C=C/c1ccccc1Cl [20z]
activity in the GSTP1-1 screening assay [1]: better inhibitory activity than curcumin

O=C(/C=C/c1ccc(Cl)cc1)/C=C/c1ccc(Cl)cc1 [20x]
activity in the GSTP1-1 screening assay [1]: better inhibitory activity than curcumin

CC(C(=O)C=Cc1ccccc1)=C(O)C=Cc1ccccc1 [6b]
activity in the GSTP1-1 screening assay [1]: more active than curcumin

O=C(/C=C/c1ccc(O)cc1)/C=C/c1ccc(O)cc1 [20f]
activity in the GSTP1-1 screening assay [1]: better inhibitory activity than curcumin

Cc1ccc(/C=C/C(=O)/C=C/c2ccc(C)cc2)cc1 [20aa]
activity in the GSTP1-1 screening assay [1]: better inhibitory activity than curcumin

COc1cc(/C=C/C(=O)/C=C(O)/C=C/c2ccc(O)c(OC)c2)ccc1O [analog 3a, 1,7-Bis(4-hydroxy-3-methoxyphenyl)-1,6-heptadiene-3,5-dione]
IC50 for disaggregation of preformed fibrils ([2]; in vitro): 1.0 µM
IC50 for fibril inhibition ([2]; in vitro): 0.8 µM
IC50 for Aβ oligomerization reported by Yang, et al. ([2]; non-biotinylated Aβ(1-40)): ~1 µM
half-life at 20 μM [3]: 7.2 min

O=C(/C=C/c1cccc(Cl)c1)/C=C/c1cccc(Cl)c1 [20y]
activity in the GSTP1-1 screening assay [1]: better inhibitory activity than curcumin

O=C(/C=C/c1cccc(O)c1)/C=C/c1cccc(O)c1 [20p]
activity in the GSTP1-1 screening assay [1]: better inhibitory activity than curcumin

O=C(/C=C/c1ccccc1)C(Cc1ccccc1)(Cc1ccccc1)C(=O)/C=C/c1ccccc1 [12b]
activity in the GSTP1-1 screening assay [1]: more active than curcumin

Cc1cccc(/C=C/C(=O)/C=C/c2cccc(C)c2)c1 [20ab]
activity in the GSTP1-1 screening assay [1]: better inhibitory activity than curcumin

O=C(/C=C/c1ccccc1)/C=C/c1ccccc1 [20b]
activity in the GSTP1-1 screening assay [1]: better inhibitory activity than curcumin

COc1ccccc1/C=C/C(=O)/C=C(O)/C=C/c1ccccc1OC [3c]
activity in the GSTP1-1 screening assay [1]: more active than curcumin

O=C(/C=C/c1ccccc1)/C(Cc1ccccc1)=C(O)/C=C/c1ccccc1 [9b]
activity in the GSTP1-1 screening assay [1]: more active than curcumin
activity in the AP-1 cellular assay (screen) [4]: active

COc1cc(/C=C/C(=O)/C(C)=C(O)/C=C/c2ccc(O)c(OC)c2)ccc1O [6a]
TRAP ([5]; 10 μM in ethanol, Table 5): +
TRAP ([5]; Table 10): +
FRAP ([6]; 10 μM in ethanol, Table 5): +
FRAP ([6]; Table 10): +
inhibition of the activation of NF-κB by TNFα (screen) [7]: more active than curcumin
IC50 [7, 8]: 6.8 µM
IC50 ([7]; Table 10, read-out: NF-κB IC50): 6.7 µM
activity in the AP-1 cellular assay (screen) [4]: more active than curcumin
IC50 [4]: 6 µM

O=C(/C=C/c1cccnc1)/C=C/c1cccnc1 [compound 31]
activity in the GSTP1-1 screening assay [1]: better inhibitory activity than curcumin
inhibition of the activation of NF-κB by TNFα (screen) [7]: more active than curcumin
IC50 [7, 8]: 3.4 µM
IC50 ([7]; Table 10, read-out: NF-κB IC50): 3.4 µM
activity in the AP-1 cellular assay (screen) [4]: more active than curcumin
IC50 [4]: 4.1 µM

O=C(/C=C/c1ccncc1)/C=C/c1ccncc1 [compound 29]
activity in the GSTP1-1 screening assay [1]: better inhibitory activity than curcumin
inhibition of the activation of NF-κB by TNFα (screen) [7]: more active than curcumin
activity in the AP-1 cellular assay (screen) [4]: more active than curcumin
IC50 [4]: 8.2 µM
